The target in test [1] is human CB1 receptor (hCB1) (Homo sapiens, UniProt P21554). The test is described as follows: cAMP assay at human CB1 receptor. In kind it is cell-based. To be noted: hCB1R; maximum measurable range 30 μM; read-out: EC50 (Potency at Human CB1 determined by cAMP Assay). The method, then: The ability of each of the compounds to act as agonists or inverse agonists at human CB2 and CB1 receptors (hCB2, hCB1, respectively) and at the rat CB2 receptor (rCB2) was determined by measuring changes in intracellular cyclic AMP (cAMP) levels as described in U.S. Pat. No. 7,517,874.
TR-FRET was measured using a 330-380 nm excitation filter, 615 nm and 665 nm emission filters, dichroic minor 380 nm and Z=10 mm. cAMP concentrations in each well were back-calculated from a cAMP standard curve run concurrently during each assay. Each plate contained 16 wells of forskolin stimulated cells and 16 wells of forskolin plus 1 μM CP55,940-treated cells. Concentrations of cAMP were expressed as a percent of the difference of these two groups of wells. Concentration-response data including EC50 (the concentration of compound producing 50% of the maximal response) and intrinsic activity (the percent maximal activation compared to full activation by CP55, 940) were determined using a four-parameter non-linear regression algorithm (CambridgeSoft Bioassay).

For test [2], the target named is human CB2 receptor (hCB2) (Homo sapiens, UniProt P34972). The test is described as follows: cAMP assay at human CB2 receptor. The class given is cell-based. The following applies: hCB2R, maximum measurable range 30 μM. Here is the method: TR-FRET was measured using a 330-380 nm excitation filter, 615 nm and 665 nm emission filters, dichroic minor 380 nm and Z=10 mm. cAMP concentrations in each well were back-calculated from a cAMP standard curve run concurrently during each assay. Each plate contained 16 wells of forskolin stimulated cells and 16 wells of forskolin plus 1 μM CP55,940-treated cells. Concentrations of cAMP were expressed as a percent of the difference of these two groups of wells.

[3] abbreviates: EC50 (Potency at Human CB2 determined by cAMP Assay).
The mark [4] stands for this setting: read-out: EC50 (Potency at Human CB2 determined by cAMP Assay).

Molecules are shown by their SMILES. Like-named read-outs stand apart in the source and are kept apart here. Where only a bound is given, the exact number is not on record here.

Sequence of human CB1 receptor (hCB1) (P21554 whole entry): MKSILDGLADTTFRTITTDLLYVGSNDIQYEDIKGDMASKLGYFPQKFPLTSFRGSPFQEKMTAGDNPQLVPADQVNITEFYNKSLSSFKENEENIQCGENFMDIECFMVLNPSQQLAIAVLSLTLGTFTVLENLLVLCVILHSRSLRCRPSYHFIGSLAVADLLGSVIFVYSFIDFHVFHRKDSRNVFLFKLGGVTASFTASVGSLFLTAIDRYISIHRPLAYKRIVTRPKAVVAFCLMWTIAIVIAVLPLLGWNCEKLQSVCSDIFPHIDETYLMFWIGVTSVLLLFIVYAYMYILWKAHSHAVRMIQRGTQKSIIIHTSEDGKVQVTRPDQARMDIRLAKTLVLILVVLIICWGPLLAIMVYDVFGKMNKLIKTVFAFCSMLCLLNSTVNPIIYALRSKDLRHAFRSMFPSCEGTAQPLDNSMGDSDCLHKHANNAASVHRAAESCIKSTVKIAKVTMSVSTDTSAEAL
Sequence of human CB2 receptor (hCB2) (P34972 whole entry): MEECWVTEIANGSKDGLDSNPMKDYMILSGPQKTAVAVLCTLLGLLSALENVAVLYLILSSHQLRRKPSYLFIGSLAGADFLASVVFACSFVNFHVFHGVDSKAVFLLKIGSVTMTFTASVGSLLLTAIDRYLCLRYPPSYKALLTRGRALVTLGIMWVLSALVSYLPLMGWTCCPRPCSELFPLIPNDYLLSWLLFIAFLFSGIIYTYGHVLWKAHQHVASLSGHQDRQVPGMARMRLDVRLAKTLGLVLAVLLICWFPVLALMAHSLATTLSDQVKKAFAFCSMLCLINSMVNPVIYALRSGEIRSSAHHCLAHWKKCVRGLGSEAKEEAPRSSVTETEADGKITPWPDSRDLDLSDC

As for `CCN1CCc2c(c(-c3cc(F)ccc3F)nn2C(=O)N[C@H](C(=O)NC)C(C)(C)C)C1` [Compound 65, (S)-3-(2,5-difluorophenyl)-N-(3,3-dimethyl-1-(methylamino)-1-oxobutan-2-yl)-5-ethyl-4,5,6,7-tetrahydro-1H-pyrazolo[4,3-c]pyridine-1-carboxamide], the EC50 in test [1] and in test [2] (setting [3]) was under 1000 nM each time.

`CN1CCc2c(c(-c3cc(F)ccc3F)nn2C(=O)N[C@H](CO)C(C)(C)C)C1` [Compound 66, (S)-3-(2,5-difluorophenyl)-N-(1-hydroxy-3,3-dimethylbutan-2-yl)-5-methyl-4,5,6,7-tetrahydro-1H-pyrazolo[4,3-c]pyridine-1-carboxamide]: the EC50 – broadly, the concentration that produces a half-maximal response – is under 1000 nM in test [1] and over 1000 nM in test [2] (setting [4]).

Take `CNC(=O)[C@@H](NC(=O)n1nc(-c2ccc(F)c(F)c2)c2c1CCC(NC)C2)C(C)(C)C` (stereo partly drawn) [Compound 68, 3-(3,4-difluorophenyl)-N—((S)-3,3-dimethyl-1-(methylamino)-1-oxobutan-2-yl)-5-(methylamino)-4,5,6,7-tetrahydro-1H-indazole-1-carboxamide]: the EC50 in test [1] and in test [2] (setting [3]) was under 1000 nM in each case.

For the compound `CNC(=O)[C@@H](NC(=O)n1nc(-c2ccc(F)c(F)c2)c2c1CCCCN2C)C(C)(C)C` [Compound 69, (S)-3-(3,4-difluorophenyl)-N-(3,3-dimethyl-1-(methylamino)-1-oxobutan-2-yl)-4-methyl-5,6,7,8-tetrahydropyrazolo[4,3-b]azepine-1(4H)-carboxamide], the EC50 in test [1] and in test [2] (setting [3]) was under 1000 nM throughout.

Turning to `CN1CCc2c(c(-c3cc(F)c(F)cc3F)nn2C(=O)N[C@@H](CO)c2ccccc2)C1` [Compound 70, (R)—N-(2-hydroxy-1-phenylethyl)-5-methyl-3-(2,4,5-trifluorophenyl)-4,5,6,7-tetrahydro-1H-pyrazolo[4,3-c]pyridine-1-carboxamide], the EC50 in test [1] is under 1000 nM; in test [2] (setting [4]), over 1000 nM.

`CN1CCc2c(c(-c3cc(F)c(F)cc3F)nn2C(=O)N[C@H](C(=O)O)C(C)(C)C)C1` [Compound 71, (S)-3,3-dimethyl-2-(5-methyl-3-(2,4,5-trifluorophenyl)-4,5,6,7-tetrahydro-1H-pyrazolo[4,3-c]pyridine-1-carboxamido)butanoic acid]: the 50% effective concentration (EC50) in test [1] and in test [2] (setting [4]) was over 30000 nM in each case.

Consider `CC(C)C[C@H](NC(=O)[C@@H](NC(=O)n1nc(-c2cc(F)c(F)cc2F)c2c1CCN(C)C2)C(C)(C)C)C(N)=O` [Compound 72, N—((S)-1-((S)-1-amino-4-methyl-1-oxopentan-2-ylamino)-3,3-dimethyl-1-oxobutan-2-yl)-5-methyl-3-(2,4,5-trifluorophenyl)-4,5,6,7-tetrahydro-1H-pyrazolo[4,3-c]pyridine-1-carboxamide], for which the EC50 in test [1] and in test [2] (setting [4]) was over 1000 nM throughout.

In the case of `CN1CCc2c(c(-c3cc(F)c(F)cc3F)nn2C(=O)N[C@H](C(=O)NCCC(N)=O)C(C)(C)C)C1` [Compound 73, (S)—N-(1-(3-amino-3-oxopropylamino)-3,3-dimethyl-1-oxobutan-2-yl)-5-methyl-3-(2,4,5-trifluorophenyl)-4,5,6,7-tetrahydro-1H-pyrazolo[4,3-c]pyridine-1-carboxamide], the EC50 in test [1] was under 1000 nM; in test [2] (setting [4]) it was over 1000 nM.

On to `CN1CCc2c(c(-c3cc(F)c(F)cc3F)nn2C(=O)N[C@H](C(=O)N2CCC[C@H]2C(N)=O)C(C)(C)C)C1` [Compound 74, N—((S)-1-((S)-2-carbamoylpyrrolidin-1-yl)-3,3-dimethyl-1-oxobutan-2-yl)-5-methyl-3-(2,4,5-trifluorophenyl)-4,5,6,7-tetrahydro-1H-pyrazolo[4,3-c]pyridine-1-carboxamide], for which the values for the EC50 in test [1] and in test [2] (setting [4]) were under 1000 nM and over 1000 nM, respectively.

Take `CN1CCc2c(c(-c3cc(F)c(F)cc3F)nn2C(=O)N[C@H](C(=O)N2CCC[C@@H]2C(N)=O)C(C)(C)C)C1` [Compound 75, N—((S)-1-((R)-2-carbamoylpyrrolidin-1-yl)-3,3-dimethyl-1-oxobutan-2-yl)-5-methyl-3-(2,4,5-trifluorophenyl)-4,5,6,7-tetrahydro-1H-pyrazolo[4,3-c]pyridine-1-carboxamide]: the results for the EC50 in test [1] and in test [2] (setting [4]) were under 1000 nM and over 1000 nM, respectively.

For `CNC(=O)[C@@H]1CCCN1C(=O)[C@@H](NC(=O)n1nc(-c2cc(F)c(F)cc2F)c2c1CCN(C)C2)C(C)(C)C` [Compound 76, N—((S)-3,3-dimethyl-1-((S)-2-(methyl-carbamoyl)pyrrolidin-1-yl)-1-oxobutan-2-yl)-5-methyl-3-(2,4,5-trifluorophenyl)-4,5,6,7-tetrahydro-1H-pyrazolo[4,3-c]pyridine-1-carboxamide], the EC50 in test [1] was under 1000 nM; in test [2] (setting [4]), over 1000 nM.

In the case of `CCOC(=O)N1CCN(C(=O)[C@@H](NC(=O)n2nc(-c3cc(F)c(F)cc3F)c3c2CCN(C)C3)C(C)(C)C)CC1` [Compound 77, (S)-ethyl 4-(3,3-dimethyl-2-(5-methyl-3-(2,4,5-trifluorophenyl)-4,5,6,7-tetrahydro-1H-pyrazolo[4,3-c]pyridine-1-carboxamido)butanoyl)piperazine-1-carboxylate], the EC50 in test [1] was under 1000 nM; in test [2] (setting [4]) it was over 1000 nM.

On to `CN1CCc2c(c(-c3cc(F)c(F)cc3F)nn2C(=O)N[C@H](C(=O)N2CCC[C@H](O)C2)C(C)(C)C)C1` [Compound 78], for which the EC50 in test [1] is under 1000 nM; in test [2] (setting [4]) it was over 1000 nM.

As for `CN1CCc2c(c(-c3cc(F)c(F)cc3F)nn2C(=O)N[C@H](C(=O)N2CCC(C(N)=O)CC2)C(C)(C)C)C1` [Compound 79, (S)—N-(1-(4-carbamoylpiperidin-1-yl)-3,3-dimethyl-1-oxobutan-2-yl)-5-methyl-3-(2,4,5-trifluorophenyl)-4,5,6,7-tetrahydro-1H-pyrazolo[4,3-c]pyridine-1-carboxamide], the EC50 is under 1000 nM in test [1] and over 1000 nM in test [2] (setting [4]).

Consider `CN1CCc2c(c(-c3cc(F)c(F)cc3F)nn2C(=O)N[C@H](C(=O)NCCCO)C(C)(C)C)C1` [Compound 80, (S)—N-(1-(3-hydroxypropylamino)-3,3-dimethyl-1-oxobutan-2-yl)-5-methyl-3-(2,4,5-trifluorophenyl)-4,5,6,7-tetrahydro-1H-pyrazolo[4,3-c]pyridine-1-carboxamide], for which the figures for the EC50 in test [1] and in test [2] (setting [4]) were under 1000 nM and over 1000 nM, respectively.

Consider `CN1CCc2c(c(-c3cc(F)ccc3F)nn2C(=O)N[C@H](C(=O)O)C(C)(C)C)C1` [Compound 81, (S)-2-(3-(2,5-difluorophenyl)-5-methyl-4,5,6,7-tetrahydro-1H-pyrazolo[4,3-c]pyridine-1-carboxamido)-3,3-dimethylbutanoic acid], for which the 50% effective concentration (EC50) in test [1] and in test [2] (setting [4]) was over 30000 nM in each case.

`CCN1CCc2c(c(-c3cc(F)ccc3F)nn2C(=O)N[C@H](C(=O)O)C(C)(C)C)C1` [Compound 82, (S)-2-(3-(2,5-difluorophenyl)-5-ethyl-4,5,6,7-tetrahydro-1H-pyrazolo[4,3-c]pyridine-1-carboxamido)-3,3-dimethylbutanoic acid]: the EC50 in test [1] and in test [2] (setting [3]) was over 30000 nM throughout.

For the compound `CCOC(=O)CN1CCc2c(c(-c3cc(F)c(F)cc3F)nn2C(=O)N[C@H](C(=O)NC)C(C)(C)C)C1` [Compound 83, (S)-ethyl 2-(1-(3,3-dimethyl-1-(methylamino)-1-oxobutan-2-ylcarbamoyl)-3-(2,4,5-trifluorophenyl)-6,7-dihydro-1H-pyrazolo[4,3-c]pyridin-5(4H)-yl)acetate], the EC50 in test [1] is under 1000 nM; in test [2] (setting [4]), over 1000 nM.

Regarding `CNC(=O)[C@@H](NC(=O)n1nc(-c2cc(F)c(F)cc2F)c2c1CCNC2)C(C)(C)C` [Compound 84, (S)—N-(3,3-dimethyl-1-(methylamino)-1-oxobutan-2-yl)-3-(2,4,5-trifluorophenyl)-4,5,6,7-tetrahydro-1H-pyrazolo[4,3-c]pyridine-1-carboxamide], the EC50 in test [1] and in test [2] (setting [3]) was under 1000 nM each time.

Regarding `CNC(=O)[C@@H](NC(=O)n1nc(-c2cc(F)c(F)cc2F)c2c1CCN(CCO)C2)C(C)(C)C` [Compound 85, (S)—N-(3,3-dimethyl-1-(methylamino)-1-oxobutan-2-yl)-5-(2-hydroxyethyl)-3-(2,4,5-trifluorophenyl)-4,5,6,7-tetrahydro-1H-pyrazolo[4,3-c]pyridine-1-carboxamide], the EC50 in test [1] and in test [2] (setting [3]) was under 1000 nM in each case.

As for `CC(C)(C)[C@H](NC(=O)n1nc(-c2cc(F)c(F)cc2F)c2c1COCC2)C(=O)NCCO` [Compound 97, (S)—N-(1-(2-hydroxyethylamino)-3,3-dimethyl-1-oxobutan-2-yl)-3-(2,4,5-trifluorophenyl)-4,5-dihydropyrano[3,4-c]pyrazole-1(7H)-carboxamide], the half-maximal effective concentration (EC50) in test [1] and in test [2] (setting [3]) was under 1000 nM throughout.
